Laboratory results taken from US11260241B2, “Method of treating multiple sclerosis” (Wisconsin Alumni Research Foundation, priority 2010, dated 2022).
Marks after values point to notes of the source that are not given here.

How the values were obtained:
Type in all cases: in vivo, C57BL/6 mice
[1] = Analysis of serum 25(OH)D3 levels (125I-radioimmunological assay); details: dietary administration 10, 500, 1000 μg/kg per day; termination of the experiment
Procedure: Blood samples were collected at selected time points throughout the experiment. Red blood cells were removed through two successive centrifugation steps as described above. Serum 25(OH)D3 levels were determined using a ^125I-radioimmunological assay following the manufacturer's instructions (DiaSorin, Stillwater, Minn.). Samples above the range of the standard curve were diluted prior to analysis. Radioactivity was quantified using a Cobra 5002 gamma scintillation counter (PerkinElmer, Shelton, Conn.).

[2] = Analysis of serum calcium levels; details: end of experiment, vehicle 10.1 mg/dl
Procedure: Blood samples were collected at the termination of the experiments and spun at 6000 rpm (2938 g) for 15 min, followed by a second spin at 14000 rpm (16883 g) for 1 min. Serum calcium levels were determined using the calcium L3K reagent (Genzyme Diagnostics, Charlottetown, PE Canada) and the ABX Pentra 400 clinical chemistry analyzer (Horiba-ABX Diagnostics, Irvine, Calif.).

[3] = tested on: EAE; assay: EAE model of MS induced with MOG35-55, daily clinical scoring; details: for Incidence: from 10 days before immunization, 25 days monitoring; for CDI / Day of Onset / Peak Severity: mean ± SD; for Peak Severity: score scale 0-5
[4] = Body weight monitoring (weight loss and toxicity)
Procedure: Beginning 10 days prior to immunization, mice were fed a purified 0.87% calcium diet delivering the indicated doses of either 25(OH)D3 or 1,25(OH)2D3. Treatment continued for the duration of the experiment. (A) Average clinical EAE scores were determined daily for vehicle, 25(OH)D3, and 1,25(OH)2D3-treated mice (n=15-17). (B) Mice were weighed weekly (±SD) throughout the study to monitor weight loss and toxicity. (C) Serum calcium levels (±SD) were determined at the end of the experiment using a clinical chemistry analyzer. (D) Serum 25(OH)D3 levels (±SD) were determined at the termination of the experiment. *P<0.05 compared to control group. Vitamin D toxicity is known to cause weight loss and a dramatic rise in serum calcium levels. To assess the effect of UV treatment on these parameters, mice were weighed at selected time intervals throughout the study, and serum calcium levels were determined at the termination of the experiment. […] Furthermore, there were no detected difference in serum calcium levels at either the end of the UVB-pretreatment period (data not shown) or at the termination of the experiment (FIG. 1C). In addition, serum 25(OH)D3 levels were determined both at the end of the UVB-pretreatment period and at the termination of the experiment. […] Corresponding levels of the 5.0 kJ/m^2 group remained elevated at the termination of the experiment.

[5] = 10 μg/kg per day in purified diet
[6] = 500 μg/kg per day in purified diet
[7] = 1000 μg/kg per day in purified diet
[8] = 2.5 μg/kg per day in purified diet

C=C1CC[C@H](O)C/C1=C/C=C1\CCC[C@]2(C)[C@@H]([C@H](C)CCCC(C)(C)O)CC[C@@H]12 [25(OH)D3, 25-hydroxyvitamin D3]
Serum 25(OH)D3 levels [1]: dose-dependent increase | Serum calcium levels ([2]; 10 μg/kg per day in diet): 9.9 mg/dL | Serum calcium levels ([2]; 500 μg/kg per day in diet): 12.9 mg/dL | Serum calcium levels ([2]; 1000 μg/kg per day in diet): 14.2 mg/dL | Effect on incidence, onset, severity, or progression of EAE ([3]; 10 μg/kg per day): no significant effect | Incidence [3, 5]: 88% (15/17) | CDI [3, 5]: 23 ± 16 | Day of Onset [3, 5]: 14 ± 3 | Peak Severity [3, 5]: 2.9 ± 0.9 | Clinical EAE scores ([3]; 500 μg/kg per day): slight suppression | Incidence [3, 6]: 82% (14/17) | CDI [3, 6]: 19 ± 12 | Day of Onset [3, 6]: 16 ± 4 | Peak Severity [3, 6]: 2.7 ± 0.6 | Suppression of EAE ([3]; 1000 μg/kg per day): modest suppression | Incidence [3, 7]: 82% (14/17) | CDI [3, 7]: 17 ± 11 | Day of Onset [3, 7]: 16 ± 3 | Peak Severity [3, 7]: 2.6 ± 0.6 | Weight of the mice at the termination of the study ([4]; 1000 μg/kg per day in diet): significant decrease

C=C1/C(=C\C=C2/CCC[C@]3(C)[C@@H]([C@H](C)CCCC(C)(C)O)CC[C@@H]23)C[C@@H](O)C[C@@H]1O [1,25(OH)2D3, 1α,25-dihydroxyvitamin D3]
Induction of EAE ([3]; 2.5 μg/kg per day): prevented the induction of EAE | Incidence [3, 8]: 35% (6/17)† | CDI [3, 8]: 4 ± 7 | Day of Onset [3, 8]: 20 ± 3 | Peak Severity [3, 8]: 2.3 ± 0.6 | Clinical signs of EAE ([3]; pilot studies, 2.5 μg/kg per day (data not shown)): dramatic suppression | Weight of the mice at the termination of the study ([4]; mouse, in vivo): significant decrease
